The values below come from patent US8865894B2, “Oxazolidin-2-one compounds and uses thereof” (Novartis AG, priority 2012, dated 2014).

Where two headings read alike, the source gives them in different places.

For one experiment, the target named is T1, mTOR (Mus musculus, UniProt Q9JLN9).
T1 construct: endogenous in cells; host or cells: TSC1-/- MEF (mouse embryo fibroblasts)
In words: Cellular assay mTOR (phospho-T389 S6K1 SureFire in TSC1-/- MEF cells). The experiment is classed as cell-based. The text has this:
A cell based assay (384-well format) was developed for determination of compound effects on cellular mTOR kinase activity in MEF (mouse embryo fibroblasts) cells derived from mice lacking TSC1 (Tuberosclerosis Complex1) a potent suppressor of mTOR kinase activity. Due to lack of TSC1 the mTOR kinase is constitutively activated resulting in permanent phosphorylation of Thr 389 of S6 kinase 1 (S6K1) which is one of the downstream targets of mTOR.
Using a SureFire Kit that enables to determine the phosphorylation of Thr389 on the S6K1 an assay was developed, validated and implemented in the Alpha-Screen format that allows the quantitative determination of phospho-T389 of S6K1 in cell lysates. […] These were in agreement with those values obtained with the biochemical mTOR ATP-binding assay enabling a quantitative comparison of potency of mTOR inhibitors.
TSC1−/− MEFs cells (Kwiatkowski, D. J., Zhang, H., Bandura, J. L., Heiberger, K. M., Glogauer, M., el-Hashemite, N., and Onda, H. (2002) Hum. Mol. Genet. 11, 525-534) were cultured in DMEM high glucose medium supplemented with 10% FBS (Invitrogen), 2 mM Glutamine and 1% (w/v) Penicillin/Streptomycin at 37° C., 5% CO2.
The SureFire kit for determination of P70S6kinase phosphorylation was purchased from Perkin Elmer (p70S6K p-T389, #TGR70S50K) and the assay was performed according to the instructions of the supplier and according to the generic method for SureFire assays. Shortly, 5 μL cell lysate per well were transferred to 384-well white proxy-plates (for luminescent readout) and mixed with […] and […] (final volume: 12 μL). After 3 h incubation in the dark at RT luminescence was read with the Envision Reader (Perkin Elmer). Untreated cells were used as control (high control) and cells treated with 3 μM BEZ235 were used as low control. The assay window between the signals obtained for the high and the low controls were defined as 100% and compound effects were expressed as percent inhibition. IC50 values were calculated from the dose response curves by graphical extrapolation.

For experiment [1], the target named is T2, human PI3Kalpha p110 catalytic subunit (Rat-1 pBABEpuro Myr-HA-hp110alpha) (Homo sapiens, UniProt P42336).
T2 construct: Myr (myristoylation signal) (N); HA (N); expressed in transfected cells; host or cells: Rat-1
T2 sequence (P42336 whole entry): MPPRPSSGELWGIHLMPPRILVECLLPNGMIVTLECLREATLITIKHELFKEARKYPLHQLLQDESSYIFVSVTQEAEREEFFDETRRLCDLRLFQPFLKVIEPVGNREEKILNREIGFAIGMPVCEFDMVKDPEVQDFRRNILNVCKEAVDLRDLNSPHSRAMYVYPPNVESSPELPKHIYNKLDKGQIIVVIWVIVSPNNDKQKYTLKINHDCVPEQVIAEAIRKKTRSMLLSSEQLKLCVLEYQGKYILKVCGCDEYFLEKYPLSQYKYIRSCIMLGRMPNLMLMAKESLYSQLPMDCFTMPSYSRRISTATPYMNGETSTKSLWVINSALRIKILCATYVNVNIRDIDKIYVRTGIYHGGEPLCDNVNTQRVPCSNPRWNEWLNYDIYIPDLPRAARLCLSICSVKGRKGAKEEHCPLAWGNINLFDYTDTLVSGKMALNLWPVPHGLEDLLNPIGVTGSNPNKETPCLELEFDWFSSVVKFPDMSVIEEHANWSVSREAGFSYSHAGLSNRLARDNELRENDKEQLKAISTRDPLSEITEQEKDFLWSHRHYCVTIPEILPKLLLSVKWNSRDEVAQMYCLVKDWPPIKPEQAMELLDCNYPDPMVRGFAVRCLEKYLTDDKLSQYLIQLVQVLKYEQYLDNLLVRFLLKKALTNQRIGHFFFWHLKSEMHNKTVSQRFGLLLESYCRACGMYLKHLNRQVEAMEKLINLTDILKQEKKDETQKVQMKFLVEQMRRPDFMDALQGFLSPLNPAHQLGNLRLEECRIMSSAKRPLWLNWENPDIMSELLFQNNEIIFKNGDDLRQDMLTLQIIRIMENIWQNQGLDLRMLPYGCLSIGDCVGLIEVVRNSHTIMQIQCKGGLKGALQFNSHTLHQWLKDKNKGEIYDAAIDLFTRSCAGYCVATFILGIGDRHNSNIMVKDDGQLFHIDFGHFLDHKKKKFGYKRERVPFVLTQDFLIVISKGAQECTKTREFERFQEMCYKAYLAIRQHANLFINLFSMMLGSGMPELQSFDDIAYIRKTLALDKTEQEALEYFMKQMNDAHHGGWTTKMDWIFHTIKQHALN
T2 sequence (Q63787 whole entry partner): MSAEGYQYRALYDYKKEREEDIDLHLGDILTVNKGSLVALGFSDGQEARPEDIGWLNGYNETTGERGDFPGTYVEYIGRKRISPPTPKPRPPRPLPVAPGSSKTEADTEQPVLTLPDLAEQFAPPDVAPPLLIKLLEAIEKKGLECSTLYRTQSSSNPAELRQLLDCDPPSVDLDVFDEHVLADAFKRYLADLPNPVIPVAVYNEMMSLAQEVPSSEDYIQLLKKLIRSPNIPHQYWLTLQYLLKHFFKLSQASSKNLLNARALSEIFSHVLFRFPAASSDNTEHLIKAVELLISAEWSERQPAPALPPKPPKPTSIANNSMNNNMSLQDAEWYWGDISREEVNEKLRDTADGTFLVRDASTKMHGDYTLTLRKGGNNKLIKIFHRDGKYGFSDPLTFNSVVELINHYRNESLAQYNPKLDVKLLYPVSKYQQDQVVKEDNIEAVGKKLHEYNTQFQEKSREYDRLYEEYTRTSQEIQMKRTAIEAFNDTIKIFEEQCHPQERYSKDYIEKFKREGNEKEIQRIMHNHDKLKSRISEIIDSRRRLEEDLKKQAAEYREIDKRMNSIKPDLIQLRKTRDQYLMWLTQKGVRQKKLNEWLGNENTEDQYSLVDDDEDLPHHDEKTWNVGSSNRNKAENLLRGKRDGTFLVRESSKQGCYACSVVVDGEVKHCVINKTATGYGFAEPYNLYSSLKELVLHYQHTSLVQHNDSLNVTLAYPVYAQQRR
The experiment is described as follows: Cellular assay PI3Kalpha (p-Akt(S473) SureFire, Rat-1_PI3Kalpha cells). The experiment is classed as cell-based. To be noted: 1 h compound treatment, read-out: Rat1-PI3Ka/ IC50. The text has this:
AlphaScreen (Amplified Luminescent Proximity Homogeneous Assay, ALPHA, Perkin Elmer) is a non-radioactive bead-based proximity assay technology to study biomolecular interactions in a homogenous microtiter plate format. The brand name SureFire denotes AlphaScreen assays that are adapted to quantify the phosphorylation of endogenous cellular proteins in cell lysates, by using matched antibody pairs, which consist of an anti-phospho-kinase and an anti-kinase antibody. The assay allows characterization of kinase signaling in cells as well as measurement of kinase inhibitor effects. The AlphaScreen technology provides several advantages over standard assay techniques such as ELISA, as it avoids time-consuming washing procedures and reduces plate handling. Furthermore, it is miniaturizable at least to a 384-well format and provides sensitivity down to the femtomolar range, dependent on the affinity of the antibodies included in the individual AlphaScreen SureFire assay kit. High sensitivity is reached by an intrinsic amplification mechanism, which involves production of singlet oxygen molecules. SureFire assay kits are commercially available for specific targets and include pairs of validated antibodies (PerkinElmer). This report describes common procedures applied for AlphaScreen SureFire assays and respective semi-automated steps for routine kinase inhibitor profiling in cell-based assays.
The Rat-1 cell lines stably overexpressing activated PI3K class I isoforms Rat-1 pBABEpuro Myr-HA-hp110 delta (Rat-1_PI3Kdelta) and Rat-1 pBABEpuro Myr-HA-hp110alpha (Rat-1_PI3Kalpha) and Rat-1 pBABEpuro Myr-HA-hp110 beta (Rat-1_PI3beta) were prepared as described (Maira S M, Stauffer F, Brueggen J, Furet P, Schnell C, Fritsch C, Brachmann S, Chène P, de Pover A, Schoemaker K, Fabbro D, Gabriel D, Simonen M, Murphy L, Finan P, Sellers W, García-Echeverría C (2008), Mol Cancer Ther. 7:1851-63 and Maira S M, Pecchi S, Brueggen J, Huh K, Schnell C, Fritsch C, Nagel T, Wiesmann M, Brachmann S, Dorsch M, Chène P, Schoemaker K, De Pover A, Menezes D, Fabbro D, Sellers W, García-Echeverría C, Voliva C F (2011), Mol. Cancer Ther., accepted). All cell lines were cultivated in complete growth medium (DMEM high glucose, 10% (v/v) fetal bovine serum, 1% (v/v) MEM NEAA, 10 mM HEPES, 2 mM L-glutamine, puromycin (10 μg/mL for Rat-1_PI3Kdelta and Rat-1_PI3Kalpha, 4 ug/mL for Rat-1_PI3beta), 1% (v/v) Pen/Strep) to 90% confluency at 37° C./5% CO2/90% humidity in a humidified CO2 incubator and were split twice a week.
The following materials were used for p-AKT(S473) detection in Rat-1 cell lysates: Dulbecco's modified Eagle's medium (DMEM) high glucose (Gibco Invitrogen, Basel, Switzerland, Cat. No. 41965), Heat Inactivated Fetal Bovine Serum, Qualified (HI FBS; Gibco Invitrogen, Basel, Switzerland, Lot. No. 16140), MEM non essential amino acids (NEAA; Gibco Invitrogen, Basel, Switzerland, Cat. No. 11140), HEPES (Gibco Invitrogen, Basel, Switzerland, Cat. No. 15630), Penicillin/Streptomycin (Pen/Strep, 100×; Gibco Invitrogen, Basel, Switzerland, Cat. No. 15140-122), L-Glutamine (Gibco Invitrogen, Basel, Switzerland, Cat. No. 25030), Puromycin (Sigma Aldrich, Buchs, Switzerland, Cat. No. P9620), DMSO (MERCK, Dietikon, Switzerland, Cat. No. 8.02912.2500), H2O, MilliQ-H2O unless otherwise stated (MILLIPORE QGARDOOR1, Millipore, Zug, Switzerland), Bovine serum albumine (BSA; Sigma Aldrich, Buchs, Switzerland Cat. No. A8412), SureFire p-Akt 1/2 (Ser473) Assay Kit (PerkinElmer, Schwerzenbach, Switzerland, Cat. No. TGRAS50K).
The p-Akt(S473) SureFire assay measures the phosphorylation of endogenous cellular Akt 1/2 at Ser473 in cell lysates. Using Rat-1 cells stably expressing myr-HA-tagged versions of the human PI3Kdelta, PI3Kalpha, or PI3Kbeta p110 catalytic subunit isoforms, the assay was developed as a two-plate protocol in a 384-well format.

Where [2] appears, read: TSC1-/- MEF cells, read-out: mTOR S6K(T389)_TSC1ko/ IC50.
Setting [3] is: second value / 3 of the 4 values / 3 of the 5 values as per footnote, read-out: mTOR S6K(T389)_TSC1ko IC50, further individual values (footnotes).

`Nc1ncc(-c2cc(N3C(=O)OC[C@@H]3CCO)nc(N3CCOCC3)n2)c(C(F)(F)F)n1` [Example 9, (S)-3-(2′-Amino-2-morpholin-4-yl-4′-trifluoromethyl-[4,5′]bipyrimidinyl-6-yl)-4-(2-hydroxy-ethyl)-oxazolidin-2-one]: the IC50 at mTOR (setting [2]) was 1260 nM; at mTOR (setting [3]), more than 2270 nM; in experiment [1], 147 nM.

Take `C[C@H]1OC(=O)N(c2cc(-c3cnc(N)nc3C(F)(F)F)nc(N3CCOC[C@@H]3C)n2)[C@H]1CO` [Example 10, (4S,5R)-3-[2′-Amino-2-((S)-3-methyl-morpholin-4-yl)-4′-trifluoromethyl-[4,5′]bipyrimidinyl-6-yl]-4-hydroxymethyl-5-methyl-oxazolidin-2-one]: the values for the IC50 (at mTOR (setting [2]); at mTOR (setting [3]); in experiment [1]) were 2020 nM, more than 2270 nM and 61 nM, respectively.

In the case of `Nc1ncc(-c2cc(N3CCOC3=O)nc(N3CCOCC3)n2)c(C(F)(F)F)n1` [Example 11, 3-(2′-Amino-2-morpholin-4-yl-4′-trifluoromethyl-[4,5′]bipyrimidinyl-6-yl)-oxazolidin-2-one, reference compound], the IC50 is 1410 nM at mTOR (setting [2]), more than 2270 nM on mTOR (setting [3]) and 256 nM in experiment [1].

For the molecule `C[C@H]1OC(=O)N(c2cc(-c3cnc(N)nc3C(F)(F)F)nc(N3CCOCC3)n2)[C@H]1COC=O` [Example 12, Formic acid (4S,5R)-3-(2′-amino-2-morpholin-4-yl-4′-trifluoromethyl-[4,5′]bipyrimidinyl-6-yl)-5-methyl-2-oxo-oxazolidin-4-ylmethyl ester], the IC50 at mTOR (setting [2]) is 1100 nM; in experiment [1], 113 nM.

On to `C[C@H]1COCCN1c1nc(-c2cnc(N)nc2C(F)(F)F)cc(N2C(=O)OC[C@@H]2C)n1` [Example 13, (S)-3-[2′-Amino-2-((S)-3-methyl-morpholin-4-yl)-4′-trifluoromethyl-[4,5′]bipyrimidinyl-6-yl]-4-methyl-oxazolidin-2-one], for which the figures for the IC50 (on mTOR (setting [2]); in experiment [1]) were 1950 nM and 58 nM, respectively.

Take `Nc1ncc(-c2cc(N3C[C@@H](CO)OC3=O)nc(N3CCOCC3)n2)c(C(F)(F)F)n1` [Example 14, (S)-3-(2′-Amino-2-morpholin-4-yl-4′-trifluoromethyl-[4,5′]bipyrimidinyl-6-yl)-5-hydroxymethyl-oxazolidin-2-one]: the values for the IC50 (at mTOR (setting [2]); in experiment [1]) were more than 2270 nM and 277 nM, respectively.

Regarding `C[C@H]1[C@H](CO)OC(=O)N1c1cc(-c2cnc(N)nc2C(F)(F)F)nc(N2CCOCC2)n1` [Example 15, (4S,5R)-3-(2′-Amino-2-morpholin-4-yl-4′-trifluoromethyl-[4,5′]bipyrimidinyl-6-yl)-5-hydroxymethyl-4-methyl-oxazolidin-2-one], the IC50 on mTOR (setting [2]) is 727 nM; on mTOR (setting [3]), more than 2270 nM; in experiment [1] it was 79 nM.

For `C[C@H]1CN(c2cc(-c3cnc(N)nc3C(F)(F)F)nc(N3CCOCC3)n2)C(=O)O1` [Example 16, (S)-3-(2′-Amino-2-morpholin-4-yl-4′-trifluoromethyl-[4,5′]bipyrimidinyl-6-yl)-5-methyl-oxazolidin-2-one], the IC50 on mTOR (setting [2]) worked out at 942 nM; in experiment [1], 108 nM.

Turning to `[2H]C1([2H])OC([2H])([2H])C([2H])([2H])N(c2nc(-c3cnc(N)nc3C(F)(F)F)cc(N3C(=O)OC[C@@H]3C)n2)C1([2H])[2H]` [Example 17, (S)-3-(2′-amino-2-D8-morpholino-4′-(trifluoromethyl)-[4,5′-bipyrimidin]-6-yl)-4-methyloxazolidin-2-one], the IC50 on mTOR (setting [2]) worked out at 867 nM; in experiment [1], 178 nM.

For the molecule `C[C@H]1OC(=O)N(c2cc(-c3cnc(N)nc3C(F)(F)F)nc(N3CCOCC3)n2)[C@H]1CO` [Example 18, (4S,5R)-3-(2′-Amino-2-morpholin-4-yl-4′-trifluoromethyl-[4,5′]bipyrimidinyl-6-yl)-4-hydroxymethyl-5-methyl-oxazolidin-2-one], the IC50 on mTOR (setting [2]) amounted to 794 nM; in experiment [1], 38 nM.

For `C[C@H]1[C@@H](CO)OC(=O)N1c1cc(-c2cnc(N)nc2C(F)(F)F)nc(N2CCOCC2)n1` [Example 19, (4S,5S)-3-(2′-Amino-2-morpholin-4-yl-4′-trifluoromethyl-[4,5′]bipyrimidinyl-6-yl)-5-hydroxymethyl-4-methyl-oxazolidin-2-one], the IC50 worked out at 423 nM on mTOR (setting [2]) and 50 nM in experiment [1].

As for `Nc1ncc(-c2cc(N3C[C@H](CO)OC3=O)nc(N3CCOCC3)n2)c(C(F)(F)F)n1` [Example 20, (R)-3-(2′-Amino-2-morpholin-4-yl-4′-trifluoromethyl-[4,5′]bipyrimidinyl-6-yl)-5-hydroxymethyl-oxazolidin-2-one], the IC50 was more than 2270 nM at mTOR (setting [2]) and 158 nM in experiment [1].

In the case of `Nc1ncc(-c2cc(N3C(=O)O[C@H]4COC[C@H]43)nc(N3CCOCC3)n2)c(C(F)(F)F)n1` [Example 21, (3aR,6aR)-3-(2′-amino-2-morpholino-4′-(trifluoromethyl)-[4,5′-bipyrimidin]-6-yl)-tetrahydrofuro[3,4-d]oxazol-2(3H)-one], the IC50 on mTOR (setting [2]) is 942 nM; in experiment [1], 85 nM.

As to `C[C@H]1[C@@H](CCO)OC(=O)N1c1cc(-c2cnc(N)nc2C(F)(F)F)nc(N2CCOCC2)n1` [Example 23, (4S,5R)-3-(2′-Amino-2-morpholino-4′-(trifluoromethyl)-[4,5′-bipyrimidin]-6-yl)-5-(2-hydroxyethyl)-4-methyloxazolidin-2-one], the IC50 came out at 1110 nM at mTOR (setting [2]) and 20 nM in experiment [1].
